Test results: US20250084062A1, “SUBSTITUTED QUINOLINE DERIVATIVE” (ASTELLAS PHARMA INC., priority 2021, published 2025)

What was measured:
[1] = test system: MuSK-type myasthenia gravis animal model; assay: Suppressing action on muscle weakness (grip strength) in MuSK type myasthenia gravis animal model (Test Example 2); assay type: in vivo, mouse; settings: grip strength test on 5th day, female DBA/2 mice, FIG. 1
Procedure: Test Example 2: Suppressing Action on Muscle Weakness in MuSK Type Myasthenia Gravis Animal Model
(§1) In a MuSK-type myasthenia gravis animal model, in which the production of autoantibodies against endogenous MuSK was induced by immunizing with human recombinant MuSK protein, decreased grip strength was evaluated as a pathological index.
(§2) A grip strength measuring device (GPM-100B; Melquest) was used to measure the grip strength of the extremities.
(§3) Repeated daily oral administration of the test compound in the MuSK-type myasthenia gravis animal model was performed as follows.
Seven point five micrograms of human MuSK recombinant protein (9810-MK; R&D systems) prepared with Freund's Complete Adjuvant (263810; Becton, Dickinson and Company) was intradermally administered to the tail of 8-week-old female DBA/2 mice (Charles River Laboratories Japan). Two weeks later, 7.5 micrograms of human MuSK recombinant protein prepared with Freund's Incomplete Adjuvant (263910; Becton, Dickinson and Company) was intradermally administered to the tail to induce myasthenia gravis mice. A week later, antibody titers against human MuSK in serum and grip strengths by the grip strength test were measured, and the mice were divided into groups of 6 mice each based on the antibody titer value and subjected to administration of the test compound. […]

[2] = test system: acetylcholine receptor clustering; settings: NPL 16; cited from earlier work
[3] = test system: acetylcholine receptor clustering in C2Cl2 cells; assay: Induction of acetylcholine receptor clustering in mouse myoblasts C2Cl2 cells (Test Example 1); assay type: cell-based; settings: Mus musculus; for Emax: Myoblast, maximum response, area of acetylcholine receptor cluster region vs 10 ng/ml Agrin (100%), 0.1 ng/ml Agrin = 0%, read-out: Max; for EC50: Myotube, C2Cl2 myotubes, with 0.1 ng/ml Agrin, concentration giving 50% of cluster area of 10 ng/ml Agrin (100%), read-out: EC50
Procedure: Test Example 1: Evaluation of the Induction of Acetylcholine Receptor Clustering in Mouse Myoblasts C2Cl2 Cells
Induction of acetylcholine receptor clustering by the test compound was evaluated by using fluorescently-labeled Bungarotoxin to image and quantify the acetylcholine receptor cluster region induced by the differentiation of myoblasts into myotubes, and measure the change in area. The following test method was optimized with reference to various reports including FEBS let., 586, 3111-3116 (2012). When a concentration response curve is obtained by plotting the logarithmic concentration of the test compound on the horizontal axis and the ratio of the area of acetylcholine receptor cluster region on the vertical axis, the inducing action of the test compound can be determined.
A concentration response curve as an index indicating acetylcholine receptor clustering inducing action of the test compound in mouse C2Cl2 cells was prepared. C2Cl2 cells (ATCC Number: CRL-1772) were seeded at about 5000 cells/well on a 384-well plate (354667; Corning) coated with type I collagen and allowed to incubate at 37 degrees Celsius overnight in DMEM+20% FBS+1% penicillin/streptomycin medium. The following day, the medium was removed and replaced with a differentiation medium containing DMEM+2% FBS+1% penicillin/streptomycin, and allowed to incubate at 37 degrees Celsius for 4 days. The test compound was dissolved in DMSO and added to a differentiation medium containing 0.1 ng/ml Agrin (550-AG-100; R&D systems) such that the final concentration was […] (3-fold serial dilution) or 0.00017 to 3.3 μM (3-fold serial dilution). The final concentration of DMSO was 0.3%. After the 4 days of incubation, the differentiation medium was replaced with a differentiation medium containing the test compound and 0.1 ng/ml Agrin or a differentiation medium containing 0.1 ng/ml Agrin or 10 ng/ml Agrin alone, and allowed to incubate at 37 degrees Celsius overnight. The next day, 10 μl of DMEM containing Bungarotoxin-Alexa488 (B13422; Life technologies) was added to the differentiation medium containing test compound and Agrin and Agrin alone so that the final concentration of Bungarotoxin-Alexa488 was 1 μg/ml, and was allowed to incubate at 37 degrees Celsius for 1 hour to label the acetylcholine receptor. After removing all the medium, 4% PFA was added to each well and allowed to incubate at room temperature for 10 minutes, then washed with PBS, and allowed to incubate at room temperature for 30 minutes in PBS containing 5% goat serum and 0.3% Triton X-100. After removing the PBS solution, PBS-Tween20 (28352; Thermo fisher scientific) containing Anti-Myosin Heavy Chain eFluor (registered trademark) 660 (50-6503-82; eBioscience) and DAPI (340-07971; Dojindo) was added to each well and allowed to incubate at room temperature for 1 hour to label the myotubes and nuclei. After washing three times with PBS-Tween20, the fluorescence was imaged using IN Cell Analyzer 6000 (GE Healthcare). […] The response of control group (1) was regarded as 0% and the response of the control group (2) was regarded as 100%. For quantification, the signal of only the acetylcholine receptor present in the myotube was used to eliminate non-specific fluorescence.
EC50 and Max value were used as indicators of activity in order to quantitatively evaluate the inducing action of the test compound on acetylcholine receptor clustering. EC50 value is a test compound concentration which indicates 50% in terms of the area of acetylcholine receptor cluster region compared to that of 10 ng/ml Agrin (regarded as 100%) in the concentration response curve. EC50 was calculated by nonlinear regression analysis from the concentration response curve using the area of the cluster region of the test compound as an index. Max value is the maximum response value. […]

[4] = test system: MuSK-type myasthenia gravis animal model; assay: Suppressing action on muscle weakness (grip strength) in MuSK type myasthenia gravis animal model (Test Example 3); assay type: in vivo, mouse; settings: grip strength test on 4th day, female DBA/2 mice, FIG. 2
Procedure: Test Example 3: Suppressing Action on Muscle Weakness in MuSK Type Myasthenia Gravis Animal Model
as §1, §2, §3
Seven point five micrograms of human MuSK recombinant protein (9810-MK; R&D systems) prepared with Freund's Complete Adjuvant (263810; Becton, Dickinson and Company) was intradermally administered to the tail of 8-week-old female DBA/2 mice (Charles River Laboratories Japan). Two weeks later, 7.5 micrograms of human MuSK recombinant protein prepared with Freund's Incomplete Adjuvant (263910; Becton, Dickinson and Company) was intradermally administered to the tail to induce myasthenia gravis mice. A week later, antibody titers against human MuSK in serum and grip strengths by the grip strength test were measured, and the mice were divided into groups of 6 mice each and subjected to administration of the test compound. The test compound was orally administered to the mice in the treatment group (3 and 10 mg/kg, suspended in 0.5% methylcellulose twice daily), and vehicle (0.5% methylcellulose) was used for the mice in the control group in place of the test compound. As a normal group, mice of the same age, same sex, and same strain were used that were not immunized with human recombinant MuSK protein. A grip strength test was performed after the administration in the morning of the 4th day.
The significance test between the normal group and the control group was performed by the Student-t test (*p<0.05). In addition, Dunnett's multiple comparison test was used between the control group and the test compound group (#p<0.05). A p-value less than 5% was regarded as significant in all the tests.

[5] = test system: acetylcholine receptor clustering; settings: reported in NPL 15; cited from earlier work

EC50 [3] [nM]	Compound	Emax [3] [%]	suppressing action on grip strength decrease ([4]; 10 mg/kg oral twice daily)	further results
	Cc1cc(-c2c(F)cc(S(=O)(=O)N3CC[C@H](F)C3)cc2F)nc2cc(C(=O)[O-])ccc12.[Na+] [Example 2, sodium 2-{2,6-difluoro-4-[(3S)-3-fluoropyrrolidine-1-sulfonyl]phenyl}-4-methylquinoline-7-carboxylate]			suppressing action on grip strength decrease ([1]; 10 mg/kg oral twice daily): suppressing action on grip strength decrease; suppressing action on grip strength decrease ([1]; 30 mg/kg oral twice daily): suppressing action on grip strength decrease
	C=C1CC[C@H](O)C/C1=C/C=C1\CCC[C@]2(C)[C@@H]([C@H](C)CCCC(C)C)CC[C@@H]12			inducing action on acetylcholine receptor clustering in combination with Agrin [2]: promotes an inducing action on acetylcholine receptor clustering
3	Cc1c(F)c(-c2c(F)cc(S(=O)(=O)N3CCC(F)CC3)cc2F)nc2cc(C(=O)O)ccc12 [Example 18, 2-[2,6-difluoro-4-(4-fluoropiperidine-1-sulfonyl)phenyl]-3-fluoro-4-methylquinoline-7-carboxylic acid]	99.8	suppressing action on grip strength decrease	suppressing action on grip strength decrease ([4]; 3 mg/kg oral twice daily): suppressing action on grip strength decrease
	CC(C)(C)NCC(O)c1ccc(O)c(CO)c1 (centres unmarked) [salbutamol]			inducing action on acetylcholine receptor clustering [5]: has an inducing action on acetylcholine receptor clustering
16	Cc1cc(-c2c(F)cc(S(=O)(=O)N3CCC(F)CC3)cc2F)nc2cc(C(=O)O)ccc12 [Example 19, 2-[2,6-difluoro-4-(4-fluoropiperidine-1-sulfonyl)phenyl]-4-methylquinoline-7-carboxylic acid]	108	suppressing action on grip strength decrease	
